According to US9974778B2, “Substituted pyridinones as MGAT2 inhibitors” (BRISTOL-MYERS SQUIBB COMPANY, priority 2014, dated 2018):
Like-named read-outs stand apart in the source and are kept apart here.

Biological target: T1, Human MGAT-2 (Homo sapiens, UniProt Q3SYC2)
T1 construct: made in house; host or cells: Sf9 cells (membrane preparation)
Experiment: MGAT LCMS Assay
Assay type: biochemical
Method in brief: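 Robotic enzyme reaction shaken 10 min, quenched with ice-cold methanol containing 1 μg/mL 1,2-distearoyl-rac-glycerol internal standard. Diolein product measured by LC/MS (C8 column, 65° C, APCI(+) triple quad). IC50 derived from diolein/internal standard peak area ratio.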

[1] = human MGAT2 membranes expressed in Sf9 cells, 100 μM 2-oleoylglycerol, 15 μM oleoyl-coenzyme A, read-out: h-MGAT LCMS IC50

T1 sequence (Q3SYC2 whole entry): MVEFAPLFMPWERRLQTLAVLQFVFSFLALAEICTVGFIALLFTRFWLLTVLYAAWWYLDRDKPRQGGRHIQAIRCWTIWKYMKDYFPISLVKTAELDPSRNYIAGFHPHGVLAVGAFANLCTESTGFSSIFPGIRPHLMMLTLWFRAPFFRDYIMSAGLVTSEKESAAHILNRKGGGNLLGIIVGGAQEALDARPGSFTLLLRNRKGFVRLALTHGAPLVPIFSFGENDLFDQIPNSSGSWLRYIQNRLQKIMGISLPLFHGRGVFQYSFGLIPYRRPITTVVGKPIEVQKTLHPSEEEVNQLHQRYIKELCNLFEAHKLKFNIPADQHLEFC

Compound	IC50 [1] [nM]	IC50 [nM]
CCn1ccc(-c2cc(-c3ccc(OCCCC(F)(F)F)cc3F)[nH]c(=O)c2C(=O)Nc2ccc(OC(F)(F)F)cc2)n1 [Example 120, 4-(1-Ethyl-1H-pyrazol-3-yl)-6-(2-fluoro-4-(4,4,4-trifluorobutoxy)phenyl)-2-oxo-N-(4-(trifluoromethoxy)phenyl)-1,2-dihydropyridine-3-carboxamide]	45	–
CCc1ccc(-c2cc(-c3ccc(OCCCC(F)(F)F)cc3)[nH]c(=O)c2C(=O)NS(=O)(=O)C2CC2)s1 [Example 121]	11	–
Cc1ccc(-c2cc(-c3ccc(OCCCC(F)(F)F)cc3F)[nH]c(=O)c2C(=O)Nc2ccc(OC(F)(F)F)cc2)cc1 [Example 122, 6-(2-Fluoro-4-(4,4,4-trifluorobutoxy)phenyl)-2-oxo-4-(p-tolyl)-N-(4-(trifluorormethoxy)phenyl)-1,2-dihydropyridine-3-carboxamide]	27	–
O=c1[nH]c(-c2ccc(OCCCCCC(F)(F)F)cc2F)cc(-c2ccc(C3CC3)cc2)c1-c1nnn[nH]1 [Example 123, 4-(4-Cyclopropylphenyl)-6-(2-fluoro-4-((6,6,6-trifluorohexyl)oxy)phenyl)-3-(1H-tetrazol-5-yl)pyridin-2(1H)-one]	11	–
CCOc1cc(OCCCCCC(F)(F)F)ccc1-c1cc(-c2ccc(C3CC3)cc2)c(-c2nnn[nH]2)c(=O)[nH]1 [Example 124, 4-(4-Cyclopropylphenyl)-6-(2-ethoxy-4-((6,6,6-trifIuorohexyl)oxy)phenyl)-3-(1H-tetrazol-5-yl)pyridin-2(1H)-one]	129	–
O=c1[nH]c(-c2ccc(OCCCC(F)(F)F)cc2F)cc(-c2ncc(C3CC3)s2)c1-c1nnn[nH]1 [Example 125, 4-(5-Cyclopropylthiazol-2-yl)-6-(2-fluoro-4-(4,4,4-trifluorobutoxy)phenyl)-3-(1H-tetrazol-5-yl)pyridin-2(1H)-one]	2	–
CCOc1cc(OCCCC(F)(F)F)ccc1-c1cc(-c2ccc(C)cc2)c(C(=O)NS(=O)(=O)C2CC2)c(=O)[nH]1 [Example 126, N-(Cyclopropylsulfonyl)-6-(2-ethoxy-4-(4,4,4-trifluorobutoxy)phenyl)-2-oxo-4-(p-tolyl)-1,2-dihydropyridine-3-carboxamide]	43	–
CCc1ccc(-c2c(Cl)c(-c3ccc(OCCCC(F)(F)F)cc3)[nH]c(=O)c2-c2nnn[nH]2)s1 [Example 128, 5-Chloro-4-(5-ethylthiophen-2-yl)-3-(1H-tetrazol-5-yl)-6-(4-(4,4,4-trifluorobutoxy)phenyl)pyridin-2(1H)-one]	83	–
CCn1ccc(-c2cc(-c3ccc(OCCCC(F)(F)F)cc3C(F)(F)F)[nH]c(=O)c2-c2nn[nH]n2)n1 [Example 129, 4-(1-Ethyl-1H-pyrazol-3-yl)-3-(2H-tetrazol-5-yl)-6-(4-(4,4,4-trifluorobutoxy)-2-(trifluoromethyl)phenyl)pyridin-2(1H)-one]	51	–
O=c1[nH]c(-c2ccc(OCCCCCC(F)(F)F)cc2F)cc(-c2ccc(C(F)F)cc2)c1-c1nnn[nH]1 [Example 130, 4-(4-(Difluoromethyl)phenyl)-6-(2-fluoro-4-((6,6,6-trifluorohexyl)oxy)phenyl)-3-(1H-tetrazol-5-yl)pyridin-2(1H)-one]	4	–
Cc1ccc(-c2cc(-c3ccc(OCCCCCC(F)(F)F)cc3Cl)[nH]c(=O)c2C(=O)Nc2ccc(OC(F)(F)F)cc2)cc1 [Example 131, 6-(2-Chloro-4-((6,6,6-trifluorohexyl)oxy)phenyl)-2-oxo-4-(p-tolyl)-Ar-(4-(trifluoromethoxy)phenyl)-1,2-dihydropyridine-3-carboxamide]	7	–
Cc1ccc(-c2cc(-c3ccc(OCCCC(F)(F)F)cc3Cl)[nH]c(=O)c2C(=O)Nc2ccc(OC(F)(F)F)cc2)cc1 [Example 132, 6-(2-Chloro-4-(4,4,4-trifluorobutoxy)phenyl)-2-oxo-4-(p-tolyl)-N-(4-(trifluoromethoxy)phenyl)-1,2-dihydropyridine-carboxamide]	14	–
CCc1cnc(-c2cc(-c3ccc(OCCCC(F)(F)F)cc3F)[nH]c(=O)c2-c2nnn[nH]2)s1 [Example 133, 4-(5-Ethylthiazol-2-yl)-6-(2-fluoro-4-(4,4,4-trifluorobutoxy)phenyl)-3-(1H-tetrazol-5-yl)pyridin-2(1H)-one]	2	–
Cc1ccc(-c2cc(-c3ccc(OCCCCCC(F)(F)F)cc3C(F)(F)F)[nH]c(=O)c2-c2nnn[nH]2)cc1 [Example 134, 3-(2H-Tetrazol-5-yl)-4-(p-tolyl)-6-(4-((6,6,6-trifluorohexyl)oxy)-2-(trifluoromethyl)phenyl)pyridin-2(1H)-one]	3	–
CCc1ccc(-c2cc(-c3ccc(OCCCC(F)(F)F)cc3F)[nH]c(=O)c2C(=O)NS(C)(=O)=O)s1 [Example 135, 4-(5-Ethylthiophen-2-yl)-6-(2-fluoro-4-(4,4,4-trifluorobutoxy)phenyl)-N-(methylsulfonyl)-2-oxo-1,2-dihydropyridine-3-carboxamide]	5	–
CCOc1cc(OCCCC(F)(F)F)ccc1-c1cc(-c2ncc(C3CC3)s2)c(-c2nnn[nH]2)c(=O)[nH]1 [Example 137, 4-(5-Cyclopropylthiazol-2-yl)-6-(2-ethoxy-4-(4,4,4-trifluorobutoxy)phenyl)-3-(1H-tetrazol-5-yl)pyridin-2(1H)-one]	5	–
O=C(NS(=O)(=O)C1CC1)c1c(-c2ncc(C3CC3)s2)cc(-c2ccc(OCCCC(F)(F)F)cc2F)[nH]c1=O [Example 138, N-(Cyclopropylsulfonyl)-4-(5-cyclopropylthiazol-2-yl)-6-(2-fluoro-4-(4,4,4-trifluorobutoxy)phenyl)-2-oxo-1,2-dihydropyridine-3-carboxamide]	13	–
CCc1ccc(-c2cc(-c3ccc(OCCCC(F)(F)F)cc3Cl)[nH]c(=O)c2-c2nnn[nH]2)s1 [Example 139, 6-(2-Chloro-4-(4,4,4-trifluorobutoxy)phenyl)-4-(5-ethylthiophen-2-yl)-3-(1H-tetrazol-5-yl)pyridin-2(1H)-one]	4	–
CCc1ccc(-c2cc(-c3ccc(OCCCC(F)(F)F)cc3Cl)[nH]c(=O)c2C(=O)NS(C)(=O)=O)s1 [Example 140, 6-(2-Chloro-4-(4,4,4-trifluorobutoxy)phenyl)-4-(5-ethylthiophen-2-yl)-N-(methylsulfonyl)-2-oxo-1,2-dihydropyridine-3-carboxamide]	30	–
CS(=O)(=O)NC(=O)c1c(-c2ncc(C3CC3)s2)cc(-c2ccc(OCCCC(F)(F)F)cc2F)[nH]c1=O [Example 141, 4-(5-Cyclopropylthiazol-2-yl)-6-(2-fluoro-4-(4,4,4-trifluorobutoxy)phenyl)-N-(methylsulfonyl)-2-oxo-1,2-dihydropyridine-3-carboxamide]	7	–
CCc1ccc(-c2cc(-c3ccc(/C=C/C4CC4)cc3)[nH]c(=O)c2-c2nn[nH]n2)s1 [Example 142, (E)-6-(4-(2-Cyclopropylvinyl)phenyl)-4-(5-ethylthiophen-2-yl)-3-(2H-tetrazol-5-yl)pyridin-2(1H)-one]	4	–
CCOc1cc(OCCCC(F)(F)F)ccc1-c1cc(-c2ncc(C3CC3)s2)c(C(=O)NS(C)(=O)=O)c(=O)[nH]1 [Example 143, 4-(5-Cyclopropylthiazol-2-yl)-6-(2-ethoxy-4-(4,4,4-trifluorobutoxy)phenyl)-N-(methylsulfonyl)-2-oxo-1,2-dihydropyridine-3-carboxamide]	52	–
CCc1ccc(-c2cc(-c3ccc(C4=CCC(C)(C)CC4)cc3)[nH]c(=O)c2-c2nn[nH]n2)s1 [Example 144, 6-(4′,4′-Dimethyl-2′,3′,4′,5′-tetrahydro-[1,1′-biphenyl]-4-yl)-4-(5-ethylthiophen-2-yl)-3-(2H-tetrazol-5-yl)pyridin-2(1H)-one]	24	–
CCc1ccc(-c2cc(-c3ccc(CCC4CC4)cc3)[nH]c(=O)c2-c2nn[nH]n2)s1 [Example 145, 6-(4-(2-Cyclopropylethyl)phenyl)-4-(5-ethylthiophen-2-yl)-3-(2H-tetrazol-5-yl)pyridin-2(1H)-one]	10	–
CCc1cnc(-c2cc(-c3ccc(OCCCC(F)(F)F)cc3F)[nH]c(=O)c2C(=O)NS(C)(=O)=O)s1 [Example 146, 4-(5-Ethylthiazol-2-yl)-6-(2-fluoro-4-(4,4,4-trifluorobutoxy)phenyl)-N-(methylsulfonyl)-2-oxo-1,2-dihydropyridine-3-carboxamide]	29	–
CCc1cnc(-c2cc(-c3ccc(/C=C/C4CC4)cc3)[nH]c(=O)c2-c2nn[nH]n2)s1 [Example 147, (E)-6-(4-(2-Cyclopropylvinyl)phenyl)-4-(5-ethylthiazol-2-yl)-3-(2H-tetrazol-5-yl)pyridin-2(1H)-one]	7	–
CCc1cnc(-c2cc(-c3ccc(OCCCCCC(F)(F)F)cc3F)[nH]c(=O)c2-c2nnn[nH]2)s1 [Example 148, 4-(5-Ethylthiazol-2-yl)-6-(2-fluoro-4-((6,6,6-trifluorohexyl)oxy)phenyl)-3-(1H-tetrazol-5-yl)pyridin-2(1H)-one]	0.8	–
CCc1cnc(-c2cc(-c3ccc(CCC4CC4)cc3)[nH]c(=O)c2-c2nn[nH]n2)s1 [Example 149, 6-(4-(2-Cyclopropylethyl)phenyl)-4-(5-ethylthiazol-2-yl)-3-(2H-tetrazol-5-yl)pyridin-2(1H)-one]	52	–
CCc1ccc(-c2cc(-c3ccc(OCCCCCC(F)(F)F)cc3C(F)(F)F)[nH]c(=O)c2-c2nn[nH]n2)s1 [Example 151, 4-(5-Ethylthiophen-2-yl)-3-(2H-tetrazol-5-yl)-6-(4-((6,6,6-trifluorohexyl)oxy)-2-(trifluoromethyl)phenyl)pyridin-2(1H)-one]	–	0.3
CCc1ccc(-c2cc(-c3ccc(OCCCC(F)(F)F)cc3F)[nH]c(=O)c2-n2nn[nH]c2=O)s1 [Example 152, 4-(5-Ethylthiophen-2-yl)-6-(2-fluoro-4-(4,4,4-trifluorobutoxy)phenyl)-3-(5-oxo-4,5-dihydro-1H-tetrazol-1-yl)pyridin-2(1H)-one]	23	–
